According to patent publication US12043599B2, “Herbicidal compounds” (SYNGENTA PARTICIPATIONS AG, priority 2018, dated 2024):

Assays:
Type in all cases: in vivo
Setaria faberi (SETFA) [1] = assay: Post-emergence herbicidal glasshouse test, percentage damage; details: for SETFA POST percentage damage (five point scale): 250 g/h, evaluated after 13 days
Method in brief: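 Percentage damage was scored 13 days after treatment on a five-point scale (1=0-19% to 5=80-100%). Treatments were post-emergence sprays on 8-day-old wheat, barley and SETFA plants in a glasshouse (24/16 °C day/night, 14 h light, 65% humidity), using acetone/water 50:50 with 0.5% Tween 20 at the stated rates. Wheat additionally received cloquintocet-mexyl safener at 50 g/ha.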

barley = assay: Post-emergence crop safety test on barley crop plants
Description: (§1) Seeds of a variety of test species are sown in standard soil in pots (Lolium perenne (LOLPE), Setaria faberi (SETFA), Alopecurus myosuroides (ALOMY), Echinochloa crus-galli (ECHCG), Avena fatua (AVEFA)). After cultivation for one day (pre-emergence) or after 8 days cultivation (post-emergence) under controlled conditions in a glasshouse (at 24/16° C., day/night; 14 hours light; 65% humidity), the plants are sprayed with an aqueous spray solution derived from the formulation of the technical active ingredient in acetone/water (50:50) solution containing 0.5% Tween 20 (polyoxyethelyene sorbitan monolaurate, CAS RN 9005-64-5). Compounds are applied at […]. The test plants are then grown in a glasshouse under controlled conditions in a glasshouse (at 24/16° C., day/night; 14 hours light; 65% humidity) and watered twice daily. After 13 days for pre and post-emergence, the test is evaluated for the percentage damage caused to the plant. The biological activities are shown in the following table on a five point scale (5=80-100%; 4=60-79%; 3=40-59%; 2=20-39%; 1=0-19%).
Using procedures outlines above, wheat and barley crop plants and a weed species (SETFA) are treated post-emergence with compound A11 of the present invention or comparator compound C1 (Compound A-38 from WO2014/096289) at the application rates indicated. […]

wheat = assay: Post-emergence crop safety test on wheat crop plants
Description: as §1
Using procedures outlines above, wheat and barley crop plants and a weed species (SETFA) are treated post-emergence with compound A11 of the present invention or comparator compound C1 (Compound A-38 from WO2014/096289) at the application rates indicated. The compounds were also applied to wheat in conjunction with the safener compound cloquintocet-mexyl (CQC) at 50 g/ha.

[2] = tested on: Alopecurus myosuroides (ALOMY); assay: Post-emergence herbicidal glasshouse test, percentage damage; details: 250 g/h, evaluated after 13 days
Method in brief: (§2)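 Glasshouse, 24/16 °C, 14 h photoperiod, 65% humidity. Sprayed at 250 g/h pre- (1 d) or post-emergence (8 d); evaluated 13 d after spraying, 5-point damage scale.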

[3] = tested on: Echinochloa crus-galli (ECHCG); assay: as above; details: 250 g/h, evaluated after 13 days
Method in brief: as §2

Lolium perenne (LOLPE) [4] = assay: as above; details: 250 g/h, evaluated after 13 days
Method in brief: as §2

Avena fatua (AVEFA) [5] = assay: as above; details: 250 g/h, evaluated after 13 days
Method in brief: as §2

Setaria faberi (SETFA) [6] = assay: Pre-emergence herbicidal glasshouse test, percentage damage; details: 250 g/h, evaluated after 13 days
Method in brief: as §2

[7] = tested on: Alopecurus myosuroides (ALOMY); assay: as above; details: 250 g/h, evaluated after 13 days
Method in brief: as §2

[8] = tested on: Echinochloa crus-galli (ECHCG); assay: as above; details: 250 g/h, evaluated after 13 days
Method in brief: as §2

Lolium perenne (LOLPE) [9] = assay: as above; details: 250 g/h, evaluated after 13 days
Method in brief: as §2

Avena fatua (AVEFA) [10] = assay: as above; details: 250 g/h, evaluated after 13 days
Method in brief: as §2

Row | Compound | overall weed control (Setaria faberi (SETFA) [1]) | SETFA, percentage damage (Setaria faberi (SETFA) [1]; rate 30) | SETFA, percentage damage (Setaria faberi (SETFA) [1]; rate 60) | Barley, percentage damage (barley; rate 30) | Barley, percentage damage (barley; rate 60) | Wheat, percentage damage (wheat; rate 30) | Wheat, percentage damage (wheat; rate 60) | Wheat, percentage damage (wheat; rate 60 + CQC (safener cloquintocet-mexyl at 50 g/ha)) | crop safety vis-à-vis prior art compound C1 (wheat; wheat and barley) | SETFA POST percentage damage (five point scale) (Setaria faberi (SETFA) [1]) | ALOMY POST percentage damage (five point scale) [2] | ECHCG POST percentage damage (five point scale) [3] | LOLPE POST percentage damage (five point scale) (Lolium perenne (LOLPE) [4]) | AVEFA POST percentage damage (five point scale) (Avena fatua (AVEFA) [5]) | SETFA PRE percentage damage (five point scale) (Setaria faberi (SETFA) [6]) | ALOMY PRE percentage damage (five point scale) [7] | ECHCG PRE percentage damage (five point scale) [8] | LOLPE PRE percentage damage (five point scale) (Lolium perenne (LOLPE) [9]) | AVEFA PRE percentage damage (five point scale) (Avena fatua (AVEFA) [10])
1 | CC#Cc1cc(C)c(C2C(=O)CC3(CCN(C(=O)OC)CC3)CC2=O)c(C)c1 [Compound A11] | good overall weed control | 100% | 100% | 10% | 40% | 10% | 30% | 0% | significantly improved crop safety | – | – | – | – | – | – | – | – | – | –
2 | CC#Cc1cc(C)c(C2C(=O)CC3(CCN(C(=O)C4=COCCO4)CC3)CC2=O)c(C)c1 [Compound A170] | – | – | – | – | – | – | – | – | – | 5 (5=80-100%) | 5 (5=80-100%) | 5 (5=80-100%) | 5 (5=80-100%) | 5 (5=80-100%) | 4 (4=60-79%) | 4 (4=60-79%) | 3 (3=40-59%) | 4 (4=60-79%) | 2 (2=20-39%)
3 | CC#Cc1cc(C)c(C2C(=O)CC3(CCN(C(=O)C4CC(C)=NO4)CC3)CC2=O)c(C)c1 (stereo not shown) [Compound A187] | – | – | – | – | – | – | – | – | – | 5 (5=80-100%) | 5 (5=80-100%) | 5 (5=80-100%) | 5 (5=80-100%) | 5 (5=80-100%) | 5 (5=80-100%) | 4 (4=60-79%) | 5 (5=80-100%) | 5 (5=80-100%) | 5 (5=80-100%)
4 | CC#Cc1cc(C)c(C2C(=O)CC3(CCN(C(=O)NC(=O)c4ccc(F)cn4)CC3)CC2=O)c(C)c1 [Compound A157] | – | – | – | – | – | – | – | – | – | 5 (5=80-100%) | 5 (5=80-100%) | 5 (5=80-100%) | 5 (5=80-100%) | 5 (5=80-100%) | 5 (5=80-100%) | 3 (3=40-59%) | 5 (5=80-100%) | 5 (5=80-100%) | 2 (2=20-39%)
5 | CC#Cc1cc(C)c(C2=C(OC(=O)C3CC3)CC3(CCN(C(=O)C4CC4)CC3)CC2=O)c(C)c1 [Compound P1, [3-(cyclopropanecarbonyl)-9-(2,6-dimethyl-4-prop-1-ynyl-phenyl)-10-oxo-3-azaspiro[5.5]undec-8-en-8-yl] cyclopropanecarboxylate] | – | – | – | – | – | – | – | – | – | 5 (5=80-100%) | 5 (5=80-100%) | 5 (5=80-100%) | 5 (5=80-100%) | 5 (5=80-100%) | 5 (5=80-100%) | 5 (5=80-100%) | 5 (5=80-100%) | 5 (5=80-100%) | 5 (5=80-100%)
